In ChEMBL document CHEMBL1201862, “PubChem BioAssay data set” (2004):
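These data come from cells grown in 96-well plates and exposed to compound for 48 hours at five concentrations. Abbreviation: GI50, concentration required for 50% inhibition of growth.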 The source made the active and inactive calls. Cut-off read from the data, not from the text of the source: active = GI50 up to about 1.1 µM and inactive = higher.

Assays:
Assay in all cases: NCI anticancer screen, dose series, 48 h
[1] = system: BT-549
[2] = system: PC-3
[3] = system: MDA-MB-435
[4] = system: UO-31
[5] = system: SK-MEL-2
[6] = system: T47D
[7] = system: RXF 393
[8] = system: EKVX
[9] = system: 786-0
[10] = system: SK-OV-3
[11] = system: CAKI-1
[12] = system: SNB-75
[13] = system: UACC-62
[14] = system: NCI-H522
[15] = system: ACHN
[16] = system: A498
[17] = system: M19-MEL
[18] = system: DMS-273
[19] = system: DLD-1
[20] = system: KM-20L2

| Structure (SMILES) | GI50 [1] | GI50 [2] | GI50 [3] | GI50 [4] | GI50 [5] | GI50 [6] | GI50 [7] | GI50 [8] | GI50 [9] | GI50 [10] | GI50 [11] | GI50 [12] | GI50 [13] | GI50 [14] | GI50 [15] | GI50 [16] | GI50 [17] | GI50 [18] | GI50 [19] | GI50 [20] |
| --- | --- | --- | --- | --- | --- | --- | --- | --- | --- | --- | --- | --- | --- | --- | --- | --- | --- | --- | --- | --- |
| CN1C2CCC1CC(C)(O)C2 (configuration not stated) | > 100 µM (inactive) | > 100 µM (inactive) | > 100 µM (inactive) | > 100 µM (inactive) | > 100 µM (inactive) | > 100 µM (inactive) | > 100 µM (inactive) | > 100 µM (inactive) | – | – | – | – | – | – | – | – | – | – | – | – |
| COc1ccc(/C=C2\CC3C4CC=C5C[C@@H](O)CC[C@]5(C)C4CC[C@]3(C)\C2=N\O)cc1OC (some centres not stated) | 15.1 µM (inactive) | 6.03 µM (inactive) | 23.3 µM (inactive) | 2.65 µM (inactive) | 7.57 µM (inactive) | 3.35 µM (inactive) | 7.73 µM (inactive) | 6 µM (inactive) | 5.71 µM (inactive) | 49.3 µM (inactive) | 9.62 µM (inactive) | 2.33 µM (inactive) | 10.3 µM (inactive) | 13.9 µM (inactive) | 3.98 µM (inactive) | 5.4 µM (inactive) | – | – | – | – |
| COC(=O)c1ccc(/C=C2\N=C(C)OC2=O)cc1 | – | – | – | – | – | – | – | > 100 µM (inactive) | – | > 100 µM (inactive) | > 100 µM (inactive) | > 100 µM (inactive) | > 100 µM (inactive) | 59 µM (inactive) | > 100 µM (inactive) | > 100 µM (inactive) | > 100 µM (inactive) | > 100 µM (inactive) | > 100 µM (inactive) | > 100 µM (inactive) |
| CC(C)=C1C2CC3(C)CCC2(C)CCC13.CC1=CCC2C3(C)CCC2(C(C)C)C1C3 (configuration not stated) | 19.8 µM (inactive) | 39.3 µM (inactive) | 28.9 µM (inactive) | 26.7 µM (inactive) | 17.5 µM (inactive) | 36.7 µM (inactive) | 17.8 µM (inactive) | 21.6 µM (inactive) | 21.5 µM (inactive) | > 100 µM (inactive) | 17.3 µM (inactive) | 23.2 µM (inactive) | 64.1 µM (inactive) | 20.8 µM (inactive) | 20.3 µM (inactive) | 34 µM (inactive) | – | – | – | – |
| O=CCCn1[nH]c(=O)ccc1=O | – | – | – | > 100 µM (inactive) | > 100 µM (inactive) | – | > 100 µM (inactive) | > 100 µM (inactive) | > 100 µM (inactive) | – | > 100 µM (inactive) | > 100 µM (inactive) | > 100 µM (inactive) | – | > 100 µM (inactive) | > 100 µM (inactive) | > 100 µM (inactive) | > 100 µM (inactive) | > 100 µM (inactive) | > 100 µM (inactive) |
| COC(=O)C1(Cc2ccccc2)Cc2cc3c(cc2C1)CCC3 | 35 µM (inactive) | 24 µM (inactive) | 12.4 µM (inactive) | 24 µM (inactive) | 18.5 µM (inactive) | 18.2 µM (inactive) | 20.1 µM (inactive) | 21.5 µM (inactive) | 31.3 µM (inactive) | 32.3 µM (inactive) | – | 20.3 µM (inactive) | 29.8 µM (inactive) | 22.2 µM (inactive) | 30 µM (inactive) | 35.5 µM (inactive) | – | – | – | – |
| CNc1ccccc1-c1nc2ccccc2c(=O)o1 | – | – | – | > 100 µM (inactive) | > 100 µM (inactive) | – | – | > 100 µM (inactive) | – | > 100 µM (inactive) | > 100 µM (inactive) | 27.4 µM (inactive) | – | – | > 100 µM (inactive) | – | > 100 µM (inactive) | > 100 µM (inactive) | > 100 µM (inactive) | > 100 µM (inactive) |
| CC(=O)/N=C1/N(/C=C2\C(=O)Oc3ccccc3C2=O)C(=O)/C(=C/c2ccc(OC(C)=O)cc2)N1C | – | > 100 µM (inactive) | > 100 µM (inactive) | – | > 100 µM (inactive) | > 100 µM (inactive) | > 100 µM (inactive) | > 100 µM (inactive) | > 100 µM (inactive) | > 100 µM (inactive) | > 100 µM (inactive) | 88.9 µM (inactive) | > 100 µM (inactive) | > 100 µM (inactive) | > 100 µM (inactive) | 9.18 µM (inactive) | – | – | – | – |
| C/C(=N\O)C1CC(CC(=O)O)C1(C)C (configuration not stated) | > 100 µM (inactive) | > 100 µM (inactive) | > 100 µM (inactive) | > 100 µM (inactive) | > 100 µM (inactive) | > 100 µM (inactive) | > 100 µM (inactive) | > 100 µM (inactive) | > 100 µM (inactive) | > 100 µM (inactive) | > 100 µM (inactive) | > 100 µM (inactive) | > 100 µM (inactive) | > 100 µM (inactive) | > 100 µM (inactive) | > 100 µM (inactive) | – | – | – | – |
| CCN1C(=O)C(=Cc2ccc(-c3ccccc3)cc2)C(=O)N(CC)C1=S | > 100 µM (inactive) | > 100 µM (inactive) | > 100 µM (inactive) | 79.4 µM (inactive) | > 100 µM (inactive) | > 100 µM (inactive) | > 100 µM (inactive) | > 100 µM (inactive) | > 100 µM (inactive) | > 100 µM (inactive) | > 100 µM (inactive) | 71.8 µM (inactive) | > 100 µM (inactive) | – | > 100 µM (inactive) | – | – | – | – | – |
| CCOCCOc1ccc(OCCOCC)cc1 | – | – | – | 13.6 µM (inactive) | > 43 µM (inactive) | – | 18.1 µM (inactive) | – | – | > 81.8 µM (inactive) | – | 18.8 µM (inactive) | 19 µM (inactive) | – | – | 36.3 µM (inactive) | 26 µM (inactive) | 21.6 µM (inactive) | 10.1 µM (inactive) | 26.2 µM (inactive) |
| COc1cccc(NC(=O)CC(=O)n2nc(-c3ccccc3)c(/N=N/c3ccc(Cl)cc3)c2-c2ccccc2)c1 | 11.8 µM (inactive) | 27.9 µM (inactive) | 38.7 µM (inactive) | 10.2 µM (inactive) | 21.5 µM (inactive) | 13.9 µM (inactive) | 23 µM (inactive) | 24 µM (inactive) | 14.4 µM (inactive) | 5.33 µM (inactive) | 36.6 µM (inactive) | 42.8 µM (inactive) | 14.2 µM (inactive) | 19.4 µM (inactive) | 19.9 µM (inactive) | 25.6 µM (inactive) | – | – | – | – |
| CSCC(CO)NC(=O)/C=C/c1c(C)[nH]c(=O)[nH]c1=O (configuration not stated) | – | – | – | 557 µM (inactive) | 597 µM (inactive) | – | > 875 µM (inactive) | 454 µM (inactive) | – | 641 µM (inactive) | 91.8 µM (inactive) | 444 µM (inactive) | > 800 µM (inactive) | 45.8 µM (inactive) | – | > 875 µM (inactive) | 478 µM (inactive) | > 838 µM (inactive) | 512 µM (inactive) | 415 µM (inactive) |
| COC(=O)[C@@H](NC(=O)[C@H](N)Cc1ccc(N(CCCl)CCCl)cc1)C(C)C | 23.4 µM (inactive) | 21.7 µM (inactive) | 19 µM (inactive) | 12 µM (inactive) | 28.9 µM (inactive) | 2.86 µM (inactive) | 12 µM (inactive) | 34 µM (inactive) | 8.65 µM (inactive) | 32.7 µM (inactive) | 0.481 µM (active) | 11.1 µM (inactive) | 2.39 µM (inactive) | 5.92 µM (inactive) | 3.56 µM (inactive) | 18.7 µM (inactive) | – | – | – | – |
| CN(N)c1nc(N)c(C#N)c(C#N)c1C#N | > 10 µM (inactive) | > 10 µM (inactive) | > 10 µM (inactive) | – | – | > 10 µM (inactive) | – | – | > 10 µM (inactive) | > 10 µM (inactive) | > 10 µM (inactive) | > 10 µM (inactive) | > 10 µM (inactive) | > 10 µM (inactive) | > 10 µM (inactive) | – | – | – | – | – |
| CC1OC(O)CC(OC(=O)c2ccccc2)C1OC(=O)c1ccccc1 (configuration not stated) | – | – | – | – | – | – | 18.8 µM (inactive) | – | 29.4 µM (inactive) | – | 23.3 µM (inactive) | – | 16.7 µM (inactive) | > 100 µM (inactive) | 18.2 µM (inactive) | > 100 µM (inactive) | 17.5 µM (inactive) | 14.5 µM (inactive) | 14.3 µM (inactive) | 66.2 µM (inactive) |
| CC1(C)CC[C@]2(C)CC[C@]3(C)C(=CC[C@@H]4[C@@]5(C)CCC(=O)C(C)(C)[C@@H]5[C@H](O)C[C@]43C)[C@@H]2C1 | 20.5 µM (inactive) | 17.1 µM (inactive) | 19.9 µM (inactive) | – | 16 µM (inactive) | 17.3 µM (inactive) | 16.1 µM (inactive) | 17.8 µM (inactive) | 15.5 µM (inactive) | 17.6 µM (inactive) | 18.3 µM (inactive) | – | 15.9 µM (inactive) | 17 µM (inactive) | 16.9 µM (inactive) | 17.3 µM (inactive) | – | – | – | – |
| O=C(O)C(Cc1ccc(O)cn1)NC(=O)C(F)(F)F (configuration not stated) | > 100 µM (inactive) | > 100 µM (inactive) | > 100 µM (inactive) | > 100 µM (inactive) | – | – | > 100 µM (inactive) | > 100 µM (inactive) | > 100 µM (inactive) | – | > 100 µM (inactive) | – | – | > 100 µM (inactive) | > 100 µM (inactive) | > 100 µM (inactive) | – | – | – | – |
| Nc1cc(S(=O)(=O)O)cc2cc(S(=O)(=O)O)c(/N=N/c3ccc(-c4ccc(/N=N/c5c(S(=O)(=O)O)cc6cc(S(=O)(=O)O)cc(N)c6c5O)cc4)cc3)c(O)c12 | – | – | – | > 100 µM (inactive) | > 100 µM (inactive) | – | > 69.5 µM (inactive) | > 100 µM (inactive) | – | > 100 µM (inactive) | – | > 100 µM (inactive) | – | > 100 µM (inactive) | – | > 100 µM (inactive) | > 100 µM (inactive) | > 100 µM (inactive) | > 100 µM (inactive) | > 100 µM (inactive) |
| CC1(C)[C@@H]2C[C@H]1C(Cc1ccccc1C[C@H]1c3cc(-c4ccccn4)ncc3[C@H]3C[C@@H]1C3(C)C)c1cc(-c3ccccn3)ncc12 (some centres not stated) | 0.716 µM (active) | 0.47 µM (active) | 0.416 µM (active) | 0.312 µM (active) | – | 0.294 µM (active) | 0.714 µM (active) | 0.461 µM (active) | 0.253 µM (active) | 0.518 µM (active) | 0.568 µM (active) | 0.679 µM (active) | 0.292 µM (active) | 0.448 µM (active) | 0.204 µM (active) | 0.673 µM (active) | – | – | – | – |
